Measured values as given in article PMC11483378, “Triazole-Based Thiamine Analogues as Inhibitors of Thiamine Pyrophosphate-Dependent Enzymes: 1,3-Dicarboxylate for Metal Binding” (ACS Omega, 2024).

Tests used:
A. viridans PO = A. viridans PO (Aerococcus viridans, UniProt A9X9K8); assay: A. viridans PO inhibitory activity assay (quinoneimine dye); assay type: biochemical; details: read-out: KM(TPP)
Method: A. viridans PO and horseradish peroxidase were purchased from Sigma. A. viridans PO activity was determined by monitoring appearance of quinoneimine dye at 550 nm using a microplate reader (CLARIOstar) and conducted as described[5] with some modifications. […] The reaction buffer (50 mM KH2PO4 and 10 mM MgCl2, pH 5.9) contained TPP at specified concentrations, 10 μM flavin adenine dinucleotide, 0.15% 4-aminoantipyrine, 0.3% N-ethyl-N-(2-hydroxy-3-sulfopropyl)-m-toluidine (EHSPT), 50 μg/mL horseradish peroxidase, and 0.35 U/mL A. viridans PO. The reaction mixture was preincubated at 37 °C with inhibitor for 30 min, and then the reaction was initiated by adding pyruvate to a final concentration of 50 mM. To determine the IC50, TPP concentration was set at 60 μM with varying inhibitor concentrations. One unit of PO activity is defined as the production of 1 μmol of hydrogen peroxide per minute. The IC50 values were calculated from nonlinear regression curve fitting using GraphPad Prism.
(§1) Enzyme inhibitory activity assays – methods and results (Figures S1-4) […]
(§2) The compound […]
A. viridans PO inhibitory activity assay. A. viridans PO and horseradish peroxidase were purchased from Sigma. A. viridans PO activity was determined by monitoring appearance of quinoneimine dye at 550 nm using a microplate reader (CLARIOstar) and conducted as described3 with some modifications. […]
buffer (50 mM KH2PO4 and 10 mM MgCl2, pH 5.9) contained TPP at specified concentrations, 10 µM flavin adenine dinucleotide (FAD), 0.15% 4-aminoantipyrine, 0.3% N-ethyl-N-(2-hydroxy-3-sulfopropyl)-m-toluidine (EHSPT), 50 µg/mL horseradish peroxidase and 0.35 U/mL A. viridans PO. The reaction mixture was preincubated at 37 °C with inhibitor for 30 min, then reaction was initiated by adding pyruvate to a final concentration of 50 mM. To determine the IC50, TPP concentration was set was set at 60 µM with varying inhibitor concentrations. One unit of PO activity is defined as the production of 1 μmol of hydrogen peroxide per minute. The IC 50 values were calculated from non-linear regression curve fitting using GraphPad Prism. […]

[1] = Solubility in aqueous buffer / enzyme assay conditions; assay type: physicochemical
[2] = PAMPA (parallel artificial membrane permeability assay); assay type: in vitro ADME
Method: PAMPA – methods and results (Table S2)
PAMPA was carried out in 96-well microtiter filter plates obtained from Millipore as described1 with some modifications. Each well of the filter plate was impregnated with 15 µL of 5% hexadecane dissolved in hexane (i.e. total amount of hexadecane: 0.75 µL) for at least 10 minutes in ventilated environment to allow for complete evaporation of hexane. Donor compartments were filled with 200 µL compound-containing donor solutions of compounds dissolved in 5% DMSO, phosphate buffered saline PBS) and connected to acceptor plate prefilled with buffer (5% DMSO in PBS, pH 7.4). The resulting sandwich was incubated at room temperature under gentle shaking and wrapped in wet paper towels to avoid evaporation. After 10 hours, the sandwich was disassembled and the solutions in the acceptor and donor were transferred to a disposable UV-transparent plate. UV absorption was measured at wavelengths between 220 and 340 nm using a microplate reader (CLARIOstar).
Compounds were tested at 500 µM. Calibration to determine concentration of compounds were performed with varying compound concentrations in buffer (5% DMSO in PBS).
The artificial membrane permeability is expressed as fraction absorbed (Fa%)2 or log Pe (log of the effective permeability)1. LogD values at pH 7.4 were calculated using MarvinSketch.
Fa% = 100 ∙CA ∙VA / CD0 ∙ VD where: CA = final drug concentration in the acceptor well (µM)
VA = volume in the acceptor well (cm3)
CD0 = Initial drug concentration in the donor well (µM)
VD = volume in the donor well (cm3) log P (cm/s) = log -ln 1-CA/Cequilibrium
S = surface area (cm2), typically 0.268 cm2
Cequilibrium = theoretical equilibrium concentration = [CD ∙VD+CA ∙VA] / [VD+VA] where: CD = final drug concentration in the donor well (µM)
CA = final drug concentration in the acceptor well (µM)
Table S2. Permeability data.
Compounds Fa (%) PAMPA log Pe (cm/s) cLogD (pH = 7.4)

Porcine PDH E1 = biological target: T1, Porcine PDH E1 (Sus scrofa, UniProt P29804); assay: Porcine PDH E1 inhibitory activity assay (DCPIP reduction); assay type: biochemical
T1 sequence (P29804 31-390): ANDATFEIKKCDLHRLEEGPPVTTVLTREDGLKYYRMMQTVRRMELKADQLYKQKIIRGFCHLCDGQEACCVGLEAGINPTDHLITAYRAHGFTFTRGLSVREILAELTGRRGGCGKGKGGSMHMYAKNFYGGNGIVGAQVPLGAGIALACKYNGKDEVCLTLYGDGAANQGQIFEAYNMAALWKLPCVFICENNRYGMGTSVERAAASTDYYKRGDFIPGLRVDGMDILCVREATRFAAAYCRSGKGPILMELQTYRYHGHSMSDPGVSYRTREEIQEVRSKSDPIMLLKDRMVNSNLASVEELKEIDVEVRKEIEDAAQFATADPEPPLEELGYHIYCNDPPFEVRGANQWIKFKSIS
Method: Porcine PDH E1 was purchased from Sigma. Porcine PDH E1 activity was determined by monitoring 2,6-dichlorophenolindophenol (DCPIP) reduction at 600 nm using a microplate reader (CLARIOstar) and conducted as described[5] with some modifications. […] The reaction buffer (50 mM KH2PO4 and 1 mM MgCl2, pH 7) contained thiamine pyrophosphate (TPP) at specified concentrations, 0.25 mM DCPIP, and 2 mg/mL porcine PDH E1. The reaction mixture was preincubated at 37 °C with the inhibitor for 30 min, and then the reaction was initiated by adding pyruvate to a final concentration of 50 mM. To determine the half-maximal inhibitory concentration (IC50), the TPP concentration was set at 60 μM with varying inhibitor concentrations. Specific activity was calculated using the molar extinction coefficient of DCPIP, 21 mM^–1 cm^–1.[28] The IC50 values were calculated from nonlinear regression curve fitting using GraphPad Prism.
Porcine PDH E1 inhibitory activity assay. Porcine PDH E1 was purchased from Sigma. Porcine PDH E1 activity was determined by monitoring 2,6-dichlorophenolindophenol (DCPIP) reduction at 600 nm using a microplate reader (CLARIOstar) and conducted as described3 with some modifications. The […]
buffer (50 mM KH2PO4 and 1 mM MgCl2, pH 7) contained thiamine pyrophosphate (TPP) at specified concentrations, 0.25 mM 2,6-dichlorophenolindophenol (DCPIP), and 2 mg/mL porcine PDH E1. The reaction mixture was preincubated at 37 °C with the inhibitor for 30 min, then reaction was initiated by adding pyruvate to a final concentration of 50 mM. To determine the half-maximal inhibitory concentration (IC50), TPP concentration was set at 60 µM with varying inhibitor concentrations. […]
values were calculated from non-linear regression curve fitting using GraphPad Prism. […]

E. coli OGDH E1 = E. coli OGDH E1 (Escherichia coli, UniProt P0AFG3); assay: E. coli OGDH E1 inhibitory activity assay (DCPIP reduction); assay type: biochemical; details: compound at 200 μM, assay conditions of previous study
Method: E. coli OGDH E1 was from material donated by R. Frank. E. coli OGDH E1 activity was determined by monitoring DCPIP reduction at 600 nm using a microplate reader (CLARIOstar) and conducted as described[5] with some modifications. […] The reaction buffer (50 mM KH2PO4 and 2 mM MgCl2, pH 7) contained TPP at specified concentrations, 0.5 mM DCPIP, and 6.7 mg/mL E. coli OGDH E1. The reaction mixture was preincubated at 37 °C with the inhibitor for 60 min, and then the reaction was initiated by adding α-ketoglutarate to a final concentration of 10 mM. To determine the IC50, the TPP concentration was set at 60 μM with varying inhibitor concentrations. Specific activity was calculated using the molar extinction coefficient of DCPIP, 21 mM^–1 cm^–1.[28] The IC50 values were calculated from nonlinear regression curve fitting using GraphPad Prism.
as §1, §2
E. coli OGDH E1 inhibitory activity assay. E. coli OGDH E1 was from material donated by R. Frank. E. coli OGDH E1 activity was determined by monitoring DCPIP reduction at 600 nm using a microplate reader (CLARIOstar) and conducted as described3 with some modifications. The percentage inhibition of compounds against E. coli OGDH E1 was assayed at 250 μM. The reaction buffer (50 mM KH 2PO4 and 2 mM MgCl2, pH 7) contained TPP at specified concentrations, 0.5 mM DCPIP, and 6.7 mg/ml E. coli OGDH E1. The reaction mixture was preincubated at 37 °C with the inhibitor for 60 min, then reaction was initiated by adding α-ketoglutarate to a final concentration of 10 mM. To determine the IC50, TPP concentration was set at 60 µM with varying inhibitor concentrations. Specific activity was […]

[3] = substrate: Cc1ncc(C[n+]2csc(CCO[P@](=O)(O)OP(=O)(O)O)c2C)c(N)n1; assay: S. cerevisiae PDC inhibitory activity assay (DCPIP reduction); assay type: biochemical, Saccharomyces cerevisiae; details: 37.0 °C
Method: S. cerevisiae PDC was purchased from Sigma. S. cerevisiae PDC activity was determined by monitoring DCPIP reduction at 600 nm using a microplate reader (CLARIOstar) and conducted as described[5] with some modifications. […] The reaction buffer (50 mM KH2PO4 and 1 mM MgCl2, pH 7) contained TPP at specified concentrations, 0.27 mM DCPIP, and 0.15 mg/mL S. cerevisiae PDC. The reaction mixture was preincubated at 37 °C with the inhibitor for 60 min, and then the reaction was initiated by adding pyruvate to a final concentration of 70 mM. […] Specific activity was calculated using the molar extinction coefficient of DCPIP, 21 mM^–1 cm^–1.[28] The IC50 values were calculated from nonlinear regression curve fitting using GraphPad Prism.
as §1, §2
S. cerevisiae PDC inhibitory activity assay. S. cerevisiae PDC was purchased from Sigma. S. cerevisiae PDC activity was determined by monitoring DCPIP reduction at 600 nm using a microplate reader (CLARIOstar) and conducted as described3 with some modifications. The percentage inhibition of compounds against S. cerevisiae PDC was assayed at 750 μM. The reaction buffer (50 mM KH 2PO4 and 1 mM MgCl2, pH 7) contained TPP at specified concentrations, 0.27 mM DCPIP, and 0.15 mg/ml S. cerevisiae PDC. […]
calculated from non-linear regression curve fitting using GraphPad Prism. […]

Chain of E. coli OGDH E1 (P0AFG3 whole entry): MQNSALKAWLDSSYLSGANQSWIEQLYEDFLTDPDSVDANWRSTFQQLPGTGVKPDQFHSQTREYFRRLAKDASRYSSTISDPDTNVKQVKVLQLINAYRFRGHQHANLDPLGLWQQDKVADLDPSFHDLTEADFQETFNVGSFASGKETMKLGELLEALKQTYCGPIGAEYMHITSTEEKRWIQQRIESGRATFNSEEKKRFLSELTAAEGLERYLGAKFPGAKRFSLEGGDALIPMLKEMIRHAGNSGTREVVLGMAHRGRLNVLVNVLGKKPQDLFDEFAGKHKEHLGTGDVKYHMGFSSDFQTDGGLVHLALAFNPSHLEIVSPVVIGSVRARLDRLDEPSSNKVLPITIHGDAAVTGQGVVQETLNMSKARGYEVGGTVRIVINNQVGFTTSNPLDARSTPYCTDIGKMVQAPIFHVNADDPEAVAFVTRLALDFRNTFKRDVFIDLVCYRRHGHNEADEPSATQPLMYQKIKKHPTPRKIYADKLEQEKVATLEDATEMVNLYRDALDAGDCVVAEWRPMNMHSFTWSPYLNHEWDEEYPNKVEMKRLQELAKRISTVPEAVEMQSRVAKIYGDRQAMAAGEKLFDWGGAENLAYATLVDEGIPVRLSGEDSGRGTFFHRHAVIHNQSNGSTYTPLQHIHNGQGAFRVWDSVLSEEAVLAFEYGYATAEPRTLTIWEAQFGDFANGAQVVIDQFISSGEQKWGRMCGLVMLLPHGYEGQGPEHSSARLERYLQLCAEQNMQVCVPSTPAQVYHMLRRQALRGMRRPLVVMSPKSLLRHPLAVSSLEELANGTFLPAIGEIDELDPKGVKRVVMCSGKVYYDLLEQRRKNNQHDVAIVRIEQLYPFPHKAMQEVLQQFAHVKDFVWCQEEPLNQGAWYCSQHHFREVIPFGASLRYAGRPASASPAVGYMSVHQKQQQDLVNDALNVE
Chain of A. viridans PO (A9X9K8 entry or part of it): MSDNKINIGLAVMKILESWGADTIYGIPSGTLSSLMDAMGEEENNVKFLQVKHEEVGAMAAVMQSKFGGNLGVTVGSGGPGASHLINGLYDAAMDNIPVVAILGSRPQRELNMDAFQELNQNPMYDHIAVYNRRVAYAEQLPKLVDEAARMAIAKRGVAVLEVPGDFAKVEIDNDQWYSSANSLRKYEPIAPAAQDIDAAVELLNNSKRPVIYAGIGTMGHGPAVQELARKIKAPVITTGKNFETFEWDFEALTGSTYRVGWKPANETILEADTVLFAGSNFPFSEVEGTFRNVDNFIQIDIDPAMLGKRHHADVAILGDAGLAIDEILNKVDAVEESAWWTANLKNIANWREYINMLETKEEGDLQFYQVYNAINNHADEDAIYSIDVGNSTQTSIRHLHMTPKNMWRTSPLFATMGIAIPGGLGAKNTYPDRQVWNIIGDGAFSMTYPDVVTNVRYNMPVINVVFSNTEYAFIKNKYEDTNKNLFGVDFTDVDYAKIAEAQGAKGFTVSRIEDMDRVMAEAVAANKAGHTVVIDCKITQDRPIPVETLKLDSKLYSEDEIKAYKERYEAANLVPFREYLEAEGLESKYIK

## Cc1ncc(C[n+]2csc(CCO[P@](=O)(O)OP(=O)(O)O)c2C)c(N)n1 [TPP, thiamine pyrophosphate]
A. viridans PO
  Km: 5 µM

## CCC(CC)COC(=O)[C@H](C)NP(=O)(OCCc1cn(Cc2cnc(C)nc2N)nn1)Oc1ccccc1 (stereo partly drawn) [compound 12]
[1]; OGDH E1 assay, 300 μM
  solubility under the enzyme assay conditions: insufficiently soluble
[1]; PBS with 5% DMSO, aqueous with cosolvent or surfactant or cyclodextrin, kinetic from dmso stock, read-out: solubility in aqueous environments
  solubility: < 300 µM
[1]; PDC assay conditions, 1300 μM
  solubility under the enzyme assay conditions: not sufficiently soluble
[1]; PO assay conditions, 400 μM
  solubility under the enzyme assay conditions: not sufficiently soluble
[2]; PAMPA
  membrane permeability in PAMPA (in words): membrane-permeable
[2]; PAMPA, compounds at 500 µM, 5% DMSO in PBS pH 7.4, 10 hours, room temperature, read-out: PAMPA log Pe (converted)
  Papp at 10 h, 500 µM: 7.94 ×10⁻⁶ cm/s
[2]; compounds at 500 µM, 5% DMSO in PBS pH 7.4, 10 hours, room temperature
  Fa (fraction absorbed): 48%
Porcine PDH E1; compound at 10 μM, assay conditions of previous study
  inhibition: no inhibition
Porcine PDH E1; compound at 100 μM
  inhibition: no inhibition
E. coli OGDH E1
  inhibition: no inhibition

B1: S. cerevisiae PDC (Saccharomyces cerevisiae S288C) (protein)
chain: SEITLGKYLFERLKQVNVNTVFGLPGDFNLSLLDKIYEVEGMRWAGNANELNAAYAADGYARIKGMSCIITTFGVGELSALNGIAGSYAEHVGVLHVVGVPSISAQAKQLLLHHTLGNGDFTVFHRMSANISETTAMITDIATAPAEIDRCIRTTYVTQRPVYLGLPANLVDLNVPAKLLQTPIDMSLKPNDAESEKEVIDTILALVKDAKNPVILADACCSRHDVKAETKKLIDLTQFPAFVTPMGKGSIDEQHPRYGGVYVGTLSKPEVKEAVESADLILSVGALLSDFNTGSFSYSYKTKNIVEFHSDHMKIRNATFPGVQMKFVLQKLLTTIADAAKGYKPVAVPARTPANAAVPASTPLKQEWMWNQLGNFLQEGDVVIAETGTSAFGINQTTFPNNTYGISQVLWGSIGFTTGATLGAAFAAEEIDPKKRVILFIGDGSLQLTVQEISTMIRWGLKPYLFVLNNDGYTIEKLIHGPKAQYNEIQGWDHLSLLPTFGAKDYETHRVATTGEWDKLTQDKSFNDNSKIRMIEIMLPVFDAPQNLVEQAKLTAATNAKQ
notes: purchased Sigma
[3]
  Km: 15 µM
